Reference: patent US4693992A, “Bacitracin-metal-polyether antibiotic complexes” (International Minerals & Chemical Corp., priority 1985, dated 1987)

Tests used:
Eimeria tenella [1] = assay: Anticoccidial activity in chickens inoculated with Eimeria tenella oocysts (Example 11); format: in vivo; details: for Incidence of Bloody Droppings / Morbidity: 4th-6th day; for Morbidity: birds affected/birds in group; for Mortality: 4th-7th day, birds dead/birds in group; for F/G Day 0-3 / F/G Day 4-10: feed per gain
Description: (§1) This example describes experimental testing of complexes of this invention for anticoccidial activity. Anticoccidial activities of test compounds were determined by administering the compounds (in feed) to chickens inoculated with active oocysts of Eimeria tenella. The test compounds, which are listed in Table 1 below, included four bacitracin-metal-polyether antibiotic complexes prepared according to the procedures described above. In addition, sodium lysocellin, regular bacitracin, sodium monensin, sodium lasolocid, and unmedicated inoculated and noninoculated controls were included for comparative purposes.
(§2) The test animals were Hubbard White Mountain male chicken (broiler strain) that were 5 days old at the beginning of the test. Each experimental compound was administered in a chick starter diet (Table 2) at a level of 80 g/ton and 120 g/ton. At 7 days of age, chicks were individually weighed, banded, and started on their respective treatments. Each treatment was replicated three times with five birds per replicate for a total of 15 birds per group. The test period was 10 days.
Seventy-two hours after the initiation of medication, birds were reweighed and orally inoculated with approximately 100,000 Eimeria tenella oocysts suspended in a 1 cc dose of saline. The following criteria were then evaluated over the next seven days: […]
a. morbidity (4th-6th day) b. mortality (4th-7th day) c. incidence of bloody droppings (4th-6th day)

Eimeria tenella [2] = assay: Anticoccidial activity in chickens inoculated with Eimeria tenella (Example 12); format: in vivo, chicken; details: for Cecal Bleeding / Gain/Bird Days 0-3 / Gain/Bird Days 4-10: regrouped part of Table 2
Description: as §1, §2
Seventy-two hours after the initiation of medication, birds were reweighed and orally inoculated with approximately 100,000 Eimeria tenella oocysts suspended in a 1 cc dose of saline. The following criteria were then evaluated over the next seven days:
A satisfactory challenge was obtained with Eimeria tenella.

[3] = Weight gain and feed utilization efficiency in chicks, 11 days (Example 13); format: in vivo, chicken; design: key to Average Weight: average weight in grams; details: .00275% in rye basal diet
Description: (§3) This example describes experimetnal testing of complexes of the present invention as feed additives for improving weight gain or feed utilization efficiency in birds. Test animals were male meat-type chickens (Hubbard strain). Fluorescent room lights were on a 16 hours light/8 hours dark schedule. The chicks were allotted to the pens on the basis of weight classes, and chicks in the even numbered pens were wing banded. Group weights were obtained at the start and individual weights at the termination of the experiment. Chicks weighing between 55 and 65 grams were selected for the test. The test compounds were blended with a basal feed ration (shown in Table 2) at the indicated concentration. Birds fed […] and feed supplemented with zinc bacitracin (Baciferm® 50, International Minerals and Chemical Corp.) were used as controls. The test was continued for 11 days, after which individual weights, pen weight and feed consumption were recorded and analyzed.

[4] = Weight gain and feed utilization in chicks, 12 days (Example 14); format: in vivo, chicken; details: .0066% in feed
Description: as §3
All of the bacitracin-metal-polyether antibiotic complexes tested produced statistically significant increases in gains compared to the unmedicated basal ration.
The test involving test compounds 1 and 3-14 consisted of 5 replicates of 7 chicks and those involving test compound 2 consisted of 6 replicates of 7 chicks. The tests were continued for 12 days, after which individual weight gains and feed conusumption were recorded and analyzed.

In the case of “Bacitracin-Copper-Lysocellin Complex [Example 2]”, the “Incidence of Bloody Droppings” value (Eimeria tenella [1]; 80 g/ton in feed) was “Severe”, the Morbidity (Eimeria tenella [1]; 80 g/ton in feed) was 6/15 and the Mortality (Eimeria tenella [1]; 80 g/ton in feed) was 1/15. The “Gain, Grams Day 0-3” value (Eimeria tenella [1]; 80 g/ton in feed) was 59.0 Grams, the “Gain, Grams Day 4-10” value (Eimeria tenella [1]; 80 g/ton in feed) was 200.2 Grams and the “F/G Day 0-3” value (Eimeria tenella [1]; 80 g/ton in feed) was 1.67. The “F/G Day 4-10” value (Eimeria tenella [1]; 80 g/ton in feed) was 1.74, the Morbidity (Eimeria tenella [1]; 120 g/ton in feed) was 6/15 and the Mortality (Eimeria tenella [1]; 120 g/ton in feed) was 0/15. For the same molecule, the “Gain, Grams Day 0-3” value (Eimeria tenella [1]; 120 g/ton in feed) was 64.3 Grams, the “Gain, Grams Day 4-10” value (Eimeria tenella [1]; 120 g/ton in feed) was 203.5 Grams and the “F/G Day 0-3” value (Eimeria tenella [1]; 120 g/ton in feed) was 1.69. The “F/G Day 4-10” value (Eimeria tenella [1]; 120 g/ton in feed) was 1.74, the “Cecal Bleeding” value (Eimeria tenella [2]; 14 g/ton Lasalocid (Approx.)) was “Severe” and the “Gain/Bird Days 0-3” value (Eimeria tenella [2]; 14 g/ton Lasalocid (Approx.)) was 60.5. The “Gain/Bird Days 4-10” value (Eimeria tenella [2]; 14 g/ton Lasalocid (Approx.)) was 171.5, the “Cecal Bleeding” value (Eimeria tenella [2]; 36 g/ton Lasalocid (Approx.)) was “Slight-Moderate” and the “Gain/Bird Days 0-3” value (Eimeria tenella [2]; 36 g/ton Lasalocid (Approx.)) was 57.0. For the same molecule, the “Gain/Bird Days 4-10” value (Eimeria tenella [2]; 36 g/ton Lasalocid (Approx.)) was 198.7, the “Incidence of Bloody Droppings” value (Eimeria tenella [2]; 80 g/ton in feed) was “Severe” and the Morbidity (Eimeria tenella [2]; 80 g/ton in feed) was 5/15. For the same molecule, the Mortality (Eimeria tenella [2]; 80 g/ton in feed) was 0/15, the “F/G Day 0-3” value (Eimeria tenella [2]; 80 g/ton in feed) was 1.68 and the “Gain/Bird Grams Day 0-3” value (Eimeria tenella [2]; 80 g/ton in feed) was 60.5 Grams. For the same molecule, the “F/G Day 4-10” value (Eimeria tenella [2]; 80 g/ton in feed) was 1.92, the “Gain/Bird Grams Day 4-10” value (Eimeria tenella [2]; 80 g/ton in feed) was 171.5 Grams and the “Cecal bleeding associated with E. tenella infections” value (Eimeria tenella [2]; 80 gram per ton) was “severe”. The “weight gains compared with those of test compound 5 and lasalocid” value (Eimeria tenella [2]; 80 gram per ton (lasalocid 24 gram per ton)) was “appreciably higher”, the Morbidity (Eimeria tenella [2]; 120 g/ton in feed) was 4/15 and the Mortality (Eimeria tenella [2]; 120 g/ton in feed) was 0/15. The “F/G Day 0-3” value (Eimeria tenella [2]; 120 g/ton in feed) was 1.75, the “Gain/Bird Grams Day 0-3” value (Eimeria tenella [2]; 120 g/ton in feed) was 57.0 Grams and the “F/G Day 4-10” value (Eimeria tenella [2]; 120 g/ton in feed) was 1.74. The “Gain/Bird Grams Day 4-10” value (Eimeria tenella [2]; 120 g/ton in feed) was 198.7 Grams and the “anticoccidial activity (in words)” value (Eimeria tenella [2]; 120 grams per ton) was “good anticoccidial activity”.
In the case of `CC[C@@H](C(=O)[C@@H](C)[C@@H](O)[C@H](C)CCc1ccc(C)c(O)c1C(=O)O)[C@H]1O[C@](CC)([C@H]2CC[C@](O)(CC)[C@H](C)O2)C[C@@H]1C` [Lasalocid, sodium lasalocid, reference compound], the “anticoccidial activity (in words)” value (Eimeria tenella [1]; 80 and 120 g/ton, mild E. tenella challenge) was “excellent anticoccidial activity”, the “Incidence of Bloody Droppings” value (Eimeria tenella [1]; 80 g/ton in feed) was “None” and the Morbidity (Eimeria tenella [1]; 80 g/ton in feed) was 0/15. The Mortality (Eimeria tenella [1]; 80 g/ton in feed) was 0/15, the “Gain, Grams Day 0-3” value (Eimeria tenella [1]; 80 g/ton in feed) was 59.7 Grams and the “Gain, Grams Day 4-10” value (Eimeria tenella [1]; 80 g/ton in feed) was 232.4 Grams. For the same molecule, the “F/G Day 0-3” value (Eimeria tenella [1]; 80 g/ton in feed) was 1.68, the “F/G Day 4-10” value (Eimeria tenella [1]; 80 g/ton in feed) was 1.58 and the “Incidence of Bloody Droppings” value (Eimeria tenella [1]; 120 g/ton in feed) was “None”. For the same molecule, the Morbidity (Eimeria tenella [1]; 120 g/ton in feed) was 1/15, the Mortality (Eimeria tenella [1]; 120 g/ton in feed) was 0/15 and the “Gain, Grams Day 0-3” value (Eimeria tenella [1]; 120 g/ton in feed) was 55.7 Grams. For the same molecule, the “Gain, Grams Day 4-10” value (Eimeria tenella [1]; 120 g/ton in feed) was 230.1 Grams, the “F/G Day 0-3” value (Eimeria tenella [1]; 120 g/ton in feed) was 1.75 and the “F/G Day 4-10” value (Eimeria tenella [1]; 120 g/ton in feed) was 1.56. For the same molecule, the “Cecal Bleeding” value (Eimeria tenella [2]; 14 g/ton Lasalocid (Approx.)) was “Severe”, the “Gain/Bird Days 0-3” value (Eimeria tenella [2]; 14 g/ton Lasalocid (Approx.)) was 58.7 and the “Gain/Bird Days 4-10” value (Eimeria tenella [2]; 14 g/ton Lasalocid (Approx.)) was 148.5. The “Cecal bleeding associated with E. tenella infections” value (Eimeria tenella [2]; 24 (.30 of 80) gram per ton) was “severe”, the “Incidence of Bloody Droppings” value (Eimeria tenella [2]; 24 g/ton in feed) was “Severe” and the Morbidity (Eimeria tenella [2]; 24 g/ton in feed) was 9/15. For the same molecule, the Mortality (Eimeria tenella [2]; 24 g/ton in feed) was 0/15, the “F/G Day 0-3” value (Eimeria tenella [2]; 24 g/ton in feed) was 1.78 and the “Gain/Bird Grams Day 0-3” value (Eimeria tenella [2]; 24 g/ton in feed) was 58.7 Grams. The “F/G Day 4-10” value (Eimeria tenella [2]; 24 g/ton in feed) was 2.09, the “Gain/Bird Grams Day 4-10” value (Eimeria tenella [2]; 24 g/ton in feed) was 148.5 Grams and the “Cecal Bleeding” value (Eimeria tenella [2]; 36 g/ton Lasalocid (Approx.)) was “Moderate”. The “Gain/Bird Days 0-3” value (Eimeria tenella [2]; 36 g/ton Lasalocid (Approx.)) was 61.5, the “Gain/Bird Days 4-10” value (Eimeria tenella [2]; 36 g/ton Lasalocid (Approx.)) was 176.5 and the “Incidence of Bloody Droppings” value (Eimeria tenella [2]; 36 g/ton in feed) was “Moderate”. The Morbidity (Eimeria tenella [2]; 36 g/ton in feed) was 5/14, the Mortality (Eimeria tenella [2]; 36 g/ton in feed) was 1/14 and the “F/G Day 0-3” value (Eimeria tenella [2]; 36 g/ton in feed) was 1.74. The “Gain/Bird Grams Day 0-3” value (Eimeria tenella [2]; 36 g/ton in feed) was 61.5 Grams, the “F/G Day 4-10” value (Eimeria tenella [2]; 36 g/ton in feed) was 1.86 and the “Gain/Bird Grams Day 4-10” value (Eimeria tenella [2]; 36 g/ton in feed) was 176.5 Grams. For the same molecule, the “Incidence of Bloody Droppings” value (Eimeria tenella [2]; 80 g/ton in feed) was “None”, the Morbidity (Eimeria tenella [2]; 80 g/ton in feed) was 1/15 and the Mortality (Eimeria tenella [2]; 80 g/ton in feed) was 0/15. For the same molecule, the “F/G Day 0-3” value (Eimeria tenella [2]; 80 g/ton in feed) was 1.71, the “Gain/Bird Grams Day 0-3” value (Eimeria tenella [2]; 80 g/ton in feed) was 58.0 Grams and the “F/G Day 4-10” value (Eimeria tenella [2]; 80 g/ton in feed) was 1.60. For the same molecule, the “Gain/Bird Grams Day 4-10” value (Eimeria tenella [2]; 80 g/ton in feed) was 219.4 Grams, the “Incidence of Bloody Droppings” value (Eimeria tenella [2]; 120 g/ton in feed) was “None” and the Morbidity (Eimeria tenella [2]; 120 g/ton in feed) was 0/15. For the same molecule, the Mortality (Eimeria tenella [2]; 120 g/ton in feed) was 0/15, the “F/G Day 0-3” value (Eimeria tenella [2]; 120 g/ton in feed) was 1.76 and the “Gain/Bird Grams Day 0-3” value (Eimeria tenella [2]; 120 g/ton in feed) was 52.1 Grams. For the same molecule, the “F/G Day 4-10” value (Eimeria tenella [2]; 120 g/ton in feed) was 1.52 and the “Gain/Bird Grams Day 4-10” value (Eimeria tenella [2]; 120 g/ton in feed) was 225.2 Grams.
In the case of Bacitracin-Zn-Lasalocid Complex, the “Average Gain” value ([3]; 11 days) was 225 g, the “Gain/Feed Ratio” value ([3]; 11 days) was 65.6 and the “Average Weight” value ([3]; Table 4) was 285.6. The Gain/Feed ([3]; Table 4) was 65.6, the “Average Gain Index” value ([3]; unmedicated = 100) was 109.4 and the “Gain/Feed Ratio Index” value ([3]; unmedicated = 100) was 103.0. The “Gain/Feed Data” value ([4]; 12 days) was “.609”, the “Gains/gram Data” value ([4]; 12 days) was 213.5 gram and the “Gain/Feed Index Relative to #1” value ([4]; #1 = unmedicated) was 108.2. For the same molecule, the “Gains Index Relative to #1” value ([4]; #1 = unmedicated) was 115.3, the “Gain/Feed Index Relative to #2” value ([4]; #2 = zinc bacitracin) was 102.2 and the “Gains Index Relative to #2” value ([4]; #2 = zinc bacitracin) was 101.9.
